# From patent US4868321A, “Isothiocyanate intermediates” (FMC Corporation, priority 1988, dated 1989)
# Assays:
# Assay type in all cases: in vivo
# Barnyardgrass [1] = assay: Postemergence Herbicidal Activity, Barnyardgrass; conditions: Echinochloa crus-galli, post-emergence
# From the text: (§1) The herbicidal data in the following Tables 3 and 4 was obtained in the manner described in PCT published application no. […] In those tables, the test compounds are identified by numbers which correspond to those in Table 1, "kg/ha" is kilograms per hectare, and "% C" is percent control.
# Rice [2] = assay: Postemergence Herbicidal Activity, Rice; conditions: Oryza sativa, post-emergence
# From the text: as §1
# Cotton [3] = assay: Postemergence Herbicidal Activity, Cotton; conditions: Gossypium hirsutum, post-emergence
# From the text: (§2) The herbicidal data in the following Tables 3 and 4 was obtained in the manner described in PCT published application no. WO 85/01939, previously mentioned, usually employing solutions of the herbicidal compound in 50/50 acetone/water mixtures. In those tables, the test compounds are identified by numbers which correspond to those in Table 1, "kg/ha" is kilograms per hectare, and "% C" is percent control.
# Soybean [4] = assay: Preemergence Herbicidal Activity, Soybean; conditions: Glycine max, pre-emergence
# From the text: as §1
# Morningglory [5] = assay: Preemergence Herbicidal Activity, Morningglory; conditions: Ipomoea, pre-emergence
# From the text: as §2
# Field Corn [6] = assay: Postemergence Herbicidal Activity, Field Corn; conditions: Zea mays, post-emergence
# From the text: as §1
# Velvetleaf [7] = assay: Preemergence Herbicidal Activity, Velvetleaf; conditions: Abutilon theophrasti, pre-emergence
# From the text: as §2
# Velvetleaf [8] = assay: Postemergence Herbicidal Activity, Velvetleaf; conditions: Abutilon theophrasti, post-emergence
# From the text: as §2
# Green Foxtail [9] = assay: Preemergence Herbicidal Activity, Green Foxtail; conditions: Setaria viridis, pre-emergence
# From the text: as §1
# Morningglory [10] = assay: Postemergence Herbicidal Activity, Morningglory; conditions: Ipomoea, post-emergence
# From the text: as §2
# Barnyardgrass [11] = assay: Preemergence Herbicidal Activity, Barnyardgrass; conditions: Echinochloa crus-galli, pre-emergence
# From the text: as §1
# Wheat [12] = assay: Preemergence Herbicidal Activity, Wheat; conditions: Triticum aestivum, pre-emergence
# From the text: as §1
# Johnsongrass [13] = assay: Postemergence Herbicidal Activity, Johnsongrass; conditions: Sorghum halepense, post-emergence
# From the text: as §1
# Green Foxtail [14] = assay: Postemergence Herbicidal Activity, Green Foxtail; conditions: Setaria viridis, post-emergence
# From the text: as §1
# Field Corn [15] = assay: Preemergence Herbicidal Activity, Field Corn; conditions: Zea mays, pre-emergence
# From the text: as §1
# Field Bindweed [16] = assay: Preemergence Herbicidal Activity, Field Bindweed; conditions: pre-emergence
# From the text: as §2
# Field Bindweed [17] = assay: Postemergence Herbicidal Activity, Field Bindweed; conditions: post-emergence
# From the text: as §2
# Johnsongrass [18] = assay: Preemergence Herbicidal Activity, Johnsongrass; conditions: Sorghum halepense, pre-emergence
# From the text: as §1
# Rice [19] = assay: Preemergence Herbicidal Activity, Rice; conditions: Oryza sativa, pre-emergence, 0.5 kg/ha
# From the text: as §1
# Wheat [20] = assay: Postemergence Herbicidal Activity, Wheat; conditions: Triticum aestivum, post-emergence
# From the text: as §1
# Soybean [21] = assay: Postemergence Herbicidal Activity, Soybean; conditions: Glycine max, post-emergence
# From the text: as §1
# Cotton [22] = assay: Preemergence Herbicidal Activity, Cotton; conditions: Gossypium hirsutum, pre-emergence
# From the text: as §2
structure (smiles),measurement,setting,value
"CCS(=O)(=O)N(c1cc(-n2nnn(CCCF)c2=O)c(F)cc1F)S(=O)(=O)CC [Compound 20, 1-(2,4-difluoro-5-[bis(N--ethylsulfonyl)amino]phenyl]-1,4-dihydro-4-(3-fluoropropyl)-5H--tetrazol-5-one]",pest or weed control at 500 g/ha,Barnyardgrass [1]; 0.5 kg/ha,30%
same,plant injury at 500 g/ha,Rice [2]; 0.5 kg/ha,20%
same,plant injury at 500 g/ha,Cotton [3]; 0.5 kg/ha,90%
same,plant injury at 500 g/ha,Soybean [4]; 0.5 kg/ha,20%
same,pest or weed control at 500 g/ha,Morningglory [5]; 0.5 kg/ha,70%
same,plant injury at 500 g/ha,Field Corn [6]; 0.5 kg/ha,20%
same,pest or weed control at 500 g/ha,Velvetleaf [7]; 0.5 kg/ha,100%
same,pest or weed control at 500 g/ha,Velvetleaf [8]; 0.5 kg/ha,100%
same,pest or weed control at 500 g/ha,Green Foxtail [9]; 0.5 kg/ha,95%
same,pest or weed control at 500 g/ha,Morningglory [10]; 0.5 kg/ha,90%
same,pest or weed control at 500 g/ha,Barnyardgrass [11]; 0.5 kg/ha,90%
same,plant injury at 500 g/ha,Wheat [12]; 0.5 kg/ha,30%
same,pest or weed control at 500 g/ha,Johnsongrass [13]; 0.5 kg/ha,30%
same,pest or weed control at 500 g/ha,Green Foxtail [14]; 0.5 kg/ha,40%
same,plant injury at 500 g/ha,Field Corn [15]; 0.5 kg/ha,90%
same,pest or weed control at 500 g/ha,Field Bindweed [16]; 0.5 kg/ha,20%
same,pest or weed control at 500 g/ha,Field Bindweed [17]; 0.5 kg/ha,30%
same,pest or weed control at 500 g/ha,Johnsongrass [18]; 0.5 kg/ha,90%
same,plant injury at 500 g/ha,Rice [19],70%
same,plant injury at 500 g/ha,Wheat [20]; 0.5 kg/ha,50%
same,plant injury at 500 g/ha,Soybean [21]; 0.5 kg/ha,30%
same,plant injury at 500 g/ha,Cotton [22]; 0.5 kg/ha,90%
"CCS(=O)(=O)Nc1cc(-n2nnn(C)c2=O)c(F)cc1Cl [Compound 43, 1-[4-Chloro-2-fluoro-5-(N--ethylsulfonylamino)phenyl]-4,5-dihydro-4-methyl-5H--tetrazol-5-one]",pest or weed control at 2000 g/ha,Barnyardgrass [1]; 2.0 kg/ha,50%
same,plant injury at 2000 g/ha,Rice [2]; 2.0 kg/ha,50%
same,plant injury at 2000 g/ha,Cotton [3]; 2.0 kg/ha,100%
same,plant injury at 2000 g/ha,Field Corn [6]; 2.0 kg/ha,30%
same,pest or weed control at 2000 g/ha,Velvetleaf [8]; 2.0 kg/ha,95%
same,pest or weed control at 2000 g/ha,Morningglory [10]; 2.0 kg/ha,100%
same,pest or weed control at 2000 g/ha,Johnsongrass [13]; 2.0 kg/ha,70%
same,pest or weed control at 2000 g/ha,Green Foxtail [14]; 2.0 kg/ha,40%
same,pest or weed control at 2000 g/ha,Field Bindweed [17]; 2.0 kg/ha,100%
same,plant injury at 2000 g/ha,Wheat [20]; 2.0 kg/ha,50%
same,plant injury at 2000 g/ha,Soybean [21]; 2.0 kg/ha,50%
CS(=O)(=O)N(c1cc(-n2nnn(CCCF)c2=O)ccc1Cl)S(C)(=O)=O [Compound 6],pest or weed control at 8000 g/ha,Barnyardgrass [1]; 8.0 kg/ha,50%
same,plant injury at 8000 g/ha,Rice [2]; 8.0 kg/ha,30%
same,plant injury at 8000 g/ha,Cotton [3]; 8.0 kg/ha,90%
same,plant injury at 8000 g/ha,Soybean [4]; 8.0 kg/ha,30%
same,pest or weed control at 8000 g/ha,Morningglory [5]; 8.0 kg/ha,60%
same,plant injury at 8000 g/ha,Field Corn [6]; 8.0 kg/ha,40%
same,pest or weed control at 8000 g/ha,Velvetleaf [7]; 8.0 kg/ha,95%
same,pest or weed control at 8000 g/ha,Velvetleaf [8]; 8.0 kg/ha,100%
same,pest or weed control at 8000 g/ha,Green Foxtail [9]; 8.0 kg/ha,30%
same,pest or weed control at 8000 g/ha,Morningglory [10]; 8.0 kg/ha,100%
same,pest or weed control at 8000 g/ha,Barnyardgrass [11]; 8.0 kg/ha,30%
same,plant injury at 8000 g/ha,Wheat [12]; 8.0 kg/ha,0%
same,pest or weed control at 8000 g/ha,Johnsongrass [13]; 8.0 kg/ha,20%
same,pest or weed control at 8000 g/ha,Green Foxtail [14]; 8.0 kg/ha,50%
same,plant injury at 8000 g/ha,Field Corn [15]; 8.0 kg/ha,20%
same,pest or weed control at 8000 g/ha,Field Bindweed [16]; 8.0 kg/ha,20%
same,pest or weed control at 8000 g/ha,Field Bindweed [17]; 8.0 kg/ha,70%
same,pest or weed control at 8000 g/ha,Johnsongrass [18]; 8.0 kg/ha,20%
same,plant injury at 8000 g/ha,Wheat [20]; 8.0 kg/ha,20%
same,plant injury at 8000 g/ha,Soybean [21]; 8.0 kg/ha,50%
same,plant injury at 8000 g/ha,Cotton [22]; 8.0 kg/ha,70%
